Where two headings read alike, the source gives them in different places.
Assays:
soybean lipoxygenase = target: T1, soybean lipoxygenase (Glycine max, UniProt P08170); test: Soybean lipoxygenase inhibition in vitro; format: biochemical; details: 0.1 mM sodium linoleate, 234 nm
T1 sequence (P08170 1-839): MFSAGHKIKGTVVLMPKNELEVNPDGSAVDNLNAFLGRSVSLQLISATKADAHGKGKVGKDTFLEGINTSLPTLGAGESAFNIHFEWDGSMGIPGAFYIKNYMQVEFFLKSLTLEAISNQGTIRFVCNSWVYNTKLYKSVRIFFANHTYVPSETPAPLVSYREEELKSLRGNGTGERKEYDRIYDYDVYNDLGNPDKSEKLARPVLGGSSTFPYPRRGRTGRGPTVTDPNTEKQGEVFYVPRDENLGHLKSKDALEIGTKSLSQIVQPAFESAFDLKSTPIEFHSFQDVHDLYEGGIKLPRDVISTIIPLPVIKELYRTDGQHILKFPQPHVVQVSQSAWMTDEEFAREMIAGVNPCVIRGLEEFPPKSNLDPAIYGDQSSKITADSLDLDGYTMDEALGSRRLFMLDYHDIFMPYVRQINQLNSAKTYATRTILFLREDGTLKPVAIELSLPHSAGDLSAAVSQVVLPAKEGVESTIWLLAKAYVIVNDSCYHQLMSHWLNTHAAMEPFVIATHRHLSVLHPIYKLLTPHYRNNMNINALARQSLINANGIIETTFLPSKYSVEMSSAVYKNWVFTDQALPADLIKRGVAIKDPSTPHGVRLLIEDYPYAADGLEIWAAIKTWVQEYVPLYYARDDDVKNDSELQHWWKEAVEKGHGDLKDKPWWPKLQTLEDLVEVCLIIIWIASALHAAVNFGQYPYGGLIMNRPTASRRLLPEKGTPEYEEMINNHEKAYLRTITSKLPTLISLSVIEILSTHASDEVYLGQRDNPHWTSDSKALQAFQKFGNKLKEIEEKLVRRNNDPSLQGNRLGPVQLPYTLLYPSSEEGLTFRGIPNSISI
Experimental: The compounds tested were dissolved in DMSO and preincubated for 4 min at 28 °C in the presence of 753 U/mL 5-soybean lipoxygenase (5-LOX). The enzyme reaction was triggered by addition of a final concentration of 0.1 mM sodium linoleate. The conversion of sodium linoleate 13-hydrouperoxylinoleic acid was measured at 234 nm. Absorbance was measured at time 0 and 3 min.

ovine COX-1 = target: T2, ovine COX-1 (Ovis aries, UniProt P05979); test: COX inhibitor screening assay in vitro, COX-1; format: biochemical; details: for inhibition at 200 µM: read-out: COX-1 (%) inhibition
T2 construct: purchased Cayman Chemical Co., Ann Arbor, MI, USA
T2 sequence (P05979 25-600): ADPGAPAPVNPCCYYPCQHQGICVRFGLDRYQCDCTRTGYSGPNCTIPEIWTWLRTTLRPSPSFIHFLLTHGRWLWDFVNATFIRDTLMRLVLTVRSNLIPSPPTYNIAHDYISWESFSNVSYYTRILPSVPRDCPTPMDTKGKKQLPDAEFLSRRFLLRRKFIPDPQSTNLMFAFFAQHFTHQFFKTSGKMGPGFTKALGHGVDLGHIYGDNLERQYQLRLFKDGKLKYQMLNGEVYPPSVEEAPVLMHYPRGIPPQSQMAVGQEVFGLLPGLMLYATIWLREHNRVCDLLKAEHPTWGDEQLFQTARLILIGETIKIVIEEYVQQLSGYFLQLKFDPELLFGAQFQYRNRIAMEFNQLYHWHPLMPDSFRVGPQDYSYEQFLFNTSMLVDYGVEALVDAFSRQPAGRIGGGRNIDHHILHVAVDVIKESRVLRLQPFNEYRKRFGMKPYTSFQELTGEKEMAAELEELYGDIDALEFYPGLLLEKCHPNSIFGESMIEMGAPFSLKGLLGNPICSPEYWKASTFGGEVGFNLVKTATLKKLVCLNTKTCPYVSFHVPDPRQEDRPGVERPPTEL
Experimental: (§1) The COX-1 and COX-2 activities of the compounds were measured using ovine COX-1 and human recombinant COX-2 enzymes included in the “COX I inhibitor Screening Assay” kit provided by Cayman (Cayman Chemical Co., Ann Arbor, MI, USA). The assay directly measures PGF2 a produced by SnCl2 reduction of COX-derived PGH2. The prostanoid production was quantified via enzyme immunoassay using a broadly specific antibody that binds to all the major prostaglandin compounds. […]

[1] = system: carrageenin-induced mouse paw edema; test: Carrageenin-induced mouse paw edema (CPE), in vivo anti-inflammatory activity; details: for inhibition in vivo at 10 µmol/kg: Mus musculus, ip, mice, 0.01 mmol/kg body weight intraperitoneally, given simultaneously with carrageenin (2%, 0.05 mL); for increased anti-inflammatory activity compared to indomethacin: carrageenin paw edema, relative to indomethacin
Experimental: The in vivo anti-inflammatory effect of the tested compounds was assessed by using the functional model of carrageenin-induced mouse paw edema and is presented as the percentage of inhibition of induction of edema at the right hind paw (Table 1).
Edema was measured by weight increase of the right hind paw in comparison to the […] left paw.
Twenty-five thiazolo[3,2-b]1,2,4-triazole derivatives, previously synthesized were evaluated for their anti-inflammatory activity, in vivo using groups of 6–10 mice of R’’’ strain.
The anti-inflammatory activity of the compounds synthesized was studied with the Carragenin-Induced Paw Edema acute inflammation test using an aqueous carrageenin solution (2%, 0,05 mL), [14] which was injected intradermally in the footpad of the right hind limb muscle (mice R’’’ groups of 6–10 animals), whereas the left end serves as a reference. In the experimental procedure both sex male mice were used, excluding pregnant. Animals were fasted during the time of the experiment. The tested compounds (0.01 mmol/kg body weight), were suspended in water, with few drops of Tween 80 and ground in a mortar before use and were given intraperitoneally simultaneously with the carrageenin injection.

human recombinant COX-2 = target: T3, human recombinant COX-2 (Homo sapiens, UniProt P35354); test: COX inhibitor screening assay in vitro, COX-2; format: biochemical; details: for inhibition at 200 µM: read-out: COX-2 (%) inhibition
T3 construct: purchased Cayman Chemical Co., Ann Arbor, MI, USA
T3 sequence (P35354 18-604): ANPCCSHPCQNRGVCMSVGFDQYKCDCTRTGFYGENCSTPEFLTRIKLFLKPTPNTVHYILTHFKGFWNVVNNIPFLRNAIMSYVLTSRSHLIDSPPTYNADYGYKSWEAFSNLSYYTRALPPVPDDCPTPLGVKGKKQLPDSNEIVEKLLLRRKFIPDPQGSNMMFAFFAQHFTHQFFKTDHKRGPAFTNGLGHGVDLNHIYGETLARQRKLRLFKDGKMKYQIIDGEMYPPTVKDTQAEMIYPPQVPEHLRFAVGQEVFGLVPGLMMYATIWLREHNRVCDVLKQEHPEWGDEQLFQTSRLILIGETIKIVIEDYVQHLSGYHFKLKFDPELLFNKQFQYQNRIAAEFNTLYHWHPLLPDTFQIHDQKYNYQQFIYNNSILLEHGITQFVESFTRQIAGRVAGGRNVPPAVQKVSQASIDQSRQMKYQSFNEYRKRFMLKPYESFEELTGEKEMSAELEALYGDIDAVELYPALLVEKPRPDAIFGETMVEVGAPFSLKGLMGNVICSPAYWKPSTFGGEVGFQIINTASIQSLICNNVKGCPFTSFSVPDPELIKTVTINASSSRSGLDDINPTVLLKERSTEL
Experimental: as §1

[2] = at 200 μM, 0.1 μM arachidonic acid

Row | SMILES | LOX (%) inhibition (soybean lipoxygenase) [%] | inhibition at 200 µM (ovine COX-1; [2]) [%] | inhibition in vivo at 10 µmol/kg [1] [%] | inhibition at 200 µM (human recombinant COX-2; [2]) [%] | further results
1 | COc1cc(/C=c2\sc3nc(C45CC6CC(CC(C6)C4)C5)nn3c2=O)ccc1O [Compound 6] | 6.67 | 26.2 | 40 to 49 | 66 | IC50 (human recombinant COX-2): > 50 µM
2 | O=c1/c(=C/c2cccc(Br)c2)sc2nc(C34CC5CC(CC(C5)C3)C4)nn12 [Compound 18] | 31.43 | 0 | 51 to 67 | 37 | 
3 | O=c1/c(=C/c2ccc([N+](=O)[O-])cc2)sc2nc(C34CC5CC(CC(C5)C3)C4)nn12 [Compound 14] |  |  | 40 to 49 |  | 
4 | COc1ccc(/C=c2\sc3nc(C45CC6CC(CC(C6)C4)C5)nn3c2=O)cc1 [Compound 8] | 5.72 | 60.5 | 51 to 67 | 0 | IC50 (ovine COX-1): 41.9 µM; increased anti-inflammatory activity compared to indomethacin [1]: 32%; COX-2 (%) inhibition (human recombinant COX-2; [2]): completely inactive
5 | O=c1/c(=C/c2ccc(O)cc2O)sc2nc(C34CC5CC(CC(C5)C3)C4)nn12 [Compound 4] |  |  | 40 to 49 |  | 
6 | O=c1/c(=C/c2ccc(Cl)cc2Cl)sc2nc(C34CC5CC(CC(C5)C3)C4)nn12 [Compound 24] |  |  | 37 |  | 
7 | O=c1/c(=C/c2ccc(O)cc2)sc2nc(C34CC5CC(CC(C5)C3)C4)nn12 [Compound 3] | 28.58 | 93 | 37 | 25 | COX-1 IC50 fold lower than that of naproxen (ovine COX-1): 30 fold; IC50 (ovine COX-1): 1.28 µM
8 | O=c1/c(=C/c2ccc(Br)cc2)sc2nc(C34CC5CC(CC(C5)C3)C4)nn12 [Compound 19] | 8.07 | 16 | 51 to 67 | 36 | 
9 | O=c1/c(=C/c2ccccc2)sc2nc(C34CC5CC(CC(C5)C3)C4)nn12 [Compound 1] |  |  | 40 to 49 |  | 
10 | O=c1/c(=C/c2cccc(Cl)c2)sc2nc(C34CC5CC(CC(C5)C3)C4)nn12 [Compound 21] |  |  | 40 to 49 |  | 
11 | O=c1/c(=C/c2ccc(F)cc2)sc2nc(C34CC5CC(CC(C5)C3)C4)nn12 [Compound 16] | 16.13 | 19 | 51 to 67 | 0 | 
12 | COc1ccc2cc([C@H](C)C(=O)O)ccc2c1 [Naproxen, reference compound] |  |  |  |  | inhibition at 200 µM (ovine COX-1): 60%; inhibition at 200 µM (human recombinant COX-2): 65%
13 | O=c1/c(=C/c2cccc(Cl)c2Cl)sc2nc(C34CC5CC(CC(C5)C3)C4)nn12 [Compound 23] | 11.43 | 46 | 37 | 20 | 
14 | COc1cccc(/C=c2\sc3nc(C45CC6CC(CC(C6)C4)C5)nn3c2=O)c1O [Compound 5] |  |  | 51 to 67 |  | increased anti-inflammatory activity compared to indomethacin [1]: 23%
15 | O=c1/c(=C/c2ccccc2Br)sc2nc(C34CC5CC(CC(C5)C3)C4)nn12 [Compound 17] | 17.15 | 16 | 51 to 67 | 0 | 
16 | CN(C)c1ccc(/C=c2\sc3nc(C45CC6CC(CC(C6)C4)C5)nn3c2=O)cc1 [Compound 11] |  |  | 51 to 67 |  | 
17 | O=c1/c(=C/c2ccccc2Cl)sc2nc(C34CC5CC(CC(C5)C3)C4)nn12 [Compound 20] |  |  | 40 to 49 |  | 
18 | COc1cc(/C=c2\sc3nc(C45CC6CC(CC(C6)C4)C5)nn3c2=O)cc(OC)c1OC [Compound 10] |  |  | 40 to 49 |  | 
19 | COc1cc(/C=c2\sc3nc(C45CC6CC(CC(C6)C4)C5)nn3c2=O)cc(OC)c1O [Compound 7] | 16.13 | 22 | 36 | 25 | 
20 | O=c1/c(=C/c2cccc(O)c2)sc2nc(C34CC5CC(CC(C5)C3)C4)nn12 [Compound 2] | 5.82 | 18 | 36 | 64 | IC50 (human recombinant COX-2): > 50 µM
21 | O=c1/c(=C/c2ccc(Cl)cc2)sc2nc(C34CC5CC(CC(C5)C3)C4)nn12 [Compound 22] |  |  | 51 to 67 |  | 
22 | COc1ccc(/C=c2\sc3nc(C45CC6CC(CC(C6)C4)C5)nn3c2=O)cc1OC [Compound 9] |  |  | 40 to 49 |  | 
23 | O=c1/c(=C/c2ccccc2[N+](=O)[O-])sc2nc(C34CC5CC(CC(C5)C3)C4)nn12 [Compound 12] |  |  | 40 to 49 |  | 
24 | O=c1/c(=C/c2cccc([N+](=O)[O-])c2)sc2nc(C34CC5CC(CC(C5)C3)C4)nn12 [Compound 13] |  |  | 15 |  | 
25 | O=c1/c(=C/c2c(Cl)cccc2Cl)sc2nc(C34CC5CC(CC(C5)C3)C4)nn12 [Compound 25] |  |  | 32 |  | 
26 | O=c1/c(=C/c2cccc(F)c2)sc2nc(C34CC5CC(CC(C5)C3)C4)nn12 [Compound 15] | 27.15 | 36 | 51 to 67 | 23 | 

From article PMC7866232, “New Substituted 5-Benzylideno-2-Adamantylthiazol[3,2-b][1,2,4]Triazol-6(5H)ones as Possible Anti-Inflammatory Agents” (Molecules, 2021)
